Patent US12668600B2 (Kumquat Biosciences Inc., priority 2023, dated 2026)

What was measured:
Type in all cases: biochemical
[1] = target: T1, KRAS G12S (Homo sapiens, UniProt P01116, G12S); test: HTRF KRAS-SOS1 interaction assay, KRAS G12S; settings: binned ≤2 μM / >2 μM, read-out: Inhibition of KRAS G12S (IC50)
T1 construct: made in house; host or cells: E. coli, e.g. BL21 (DE3)
Outline: (§1)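 GST-tagged KRAS (WT or mutant) with anti-GST-Eu donor and His-hSOS1 with anti-6His-XL665 acceptor were combined in 5 mM HEPES pH 7.4, 150 mM NaCl, 1 mM DTT, 0.05% BSA, 0.0025% Igepal. After ~10 min, HTRF was read (ex 337, em 620/665 nm); IC50 from 665/620 ratio.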

[2] = target: T2, KRAS G12V (Homo sapiens, UniProt P01116, G12V); test: HTRF KRAS-SOS1 interaction assay, KRAS G12V; settings: binned ≤2 μM / >2 μM, read-out: Inhibition of KRAS G12V (IC50)
T2 construct: made in house; host or cells: E. coli, e.g. BL21 (DE3)
T2 sequence (P01116 1-188 isoform P01116-2 G12V): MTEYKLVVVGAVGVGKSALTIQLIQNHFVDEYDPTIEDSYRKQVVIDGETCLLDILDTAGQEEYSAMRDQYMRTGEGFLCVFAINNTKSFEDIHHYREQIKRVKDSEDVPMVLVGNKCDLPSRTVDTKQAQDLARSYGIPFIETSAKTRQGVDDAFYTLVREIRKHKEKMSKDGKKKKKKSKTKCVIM
Outline: as §1

[3] = target: T3, KRAS WT (Homo sapiens, UniProt P01116); test: HTRF KRAS-SOS1 interaction assay, wildtype KRAS; settings: binned ≤2 μM / >2 μM, read-out: Inhibition of KRAS WT (IC50)
T3 construct: made in house; host or cells: E. coli, e.g. BL21 (DE3)
T3 sequence (P01116 1-188 isoform P01116-2): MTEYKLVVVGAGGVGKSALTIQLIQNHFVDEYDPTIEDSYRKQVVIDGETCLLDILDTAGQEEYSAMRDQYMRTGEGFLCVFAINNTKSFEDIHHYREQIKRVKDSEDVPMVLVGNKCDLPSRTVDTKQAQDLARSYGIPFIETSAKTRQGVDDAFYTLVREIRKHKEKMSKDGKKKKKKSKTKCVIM
Outline: as §1

[4] = target: T4, KRAS G12D (Homo sapiens, UniProt P01116, G12D); test: HTRF KRAS-SOS1 interaction assay, KRAS G12D; settings: binned ≤2 μM / >2 μM, read-out: Inhibition of KRAS G12D (IC50)
T4 construct: made in house; host or cells: E. coli, e.g. BL21 (DE3)
T4 sequence (P01116 1-188 isoform P01116-2 G12D): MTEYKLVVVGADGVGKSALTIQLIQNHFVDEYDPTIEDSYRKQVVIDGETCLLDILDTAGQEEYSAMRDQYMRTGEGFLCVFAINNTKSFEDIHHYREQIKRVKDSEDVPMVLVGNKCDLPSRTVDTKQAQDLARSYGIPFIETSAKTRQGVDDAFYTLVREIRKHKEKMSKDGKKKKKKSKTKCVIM
Outline: as §1

T1 sequence (P01116 1-188 isoform P01116-2 G12S): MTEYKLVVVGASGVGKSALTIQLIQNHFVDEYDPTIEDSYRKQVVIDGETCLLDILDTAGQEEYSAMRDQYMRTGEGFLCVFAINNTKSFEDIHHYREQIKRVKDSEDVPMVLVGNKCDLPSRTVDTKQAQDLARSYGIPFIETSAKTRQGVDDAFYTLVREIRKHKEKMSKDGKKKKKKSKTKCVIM

SMILES | IC50 [1] [nM] | IC50 [2] [nM] | IC50 [3] [nM] | IC50 [4] [nM]
C[C@H](Oc1nc2c3c(c(Cl)c(-c4ccc(F)c5sc(N)c(C#N)c45)c(F)c3n1)OCCN2[C@H](C)c1cccnc1N)[C@@H]1CCCN1C (mixture of isomers) [Compound 803, 2-amino-4-(4-((R)-1-(2-aminopyridin-3-yl)ethyl)-8-chloro-10-fluoro-2-((S)-1-((S)-1-methylpyrrolidin-2-yl)ethoxy)-5,6-dihydro-4H-[1,4]oxazepino[5,6,7-de]quinazolin-9-yl)-7-fluorobenzo[b]thiophene-3-carbonitrile] | ≤ 2000 | ≤ 2000 | ≤ 2000 | ≤ 2000
C[C@H](c1cccnc1N)N1CCOc2c(Cl)c(-c3ccc(F)c4sc(N)c(C#N)c34)c(F)c3nc(OCC45CCCC4CCC5)nc1c23 (single isomer, unassigned) [Compound 674] | > 2000 | > 2000 | > 2000 | > 2000
Cc1c(F)c(N)cc(-c2nc3c4c(nc(OC[C@@H]5CCCN5C)nc4c2F)N([C@H](C)c2cccnc2N)CCO3)c1C(F)(F)F (single isomer, unassigned) [Compound 695] | ≤ 2000 | ≤ 2000 | ≤ 2000 | ≤ 2000
C[C@H](c1cc(Cl)cnc1N)N1CCOc2c(C(F)(F)F)c(-c3ccc(F)c4sc(N)c(C#N)c34)c(F)c3nc(OC[C@@]45CCCN4C[C@@]4(CC4(F)F)C5)nc1c23 [Compound 713, 2-amino-4-(4-((R)-1-(2-amino-5-chloropyridin-3-yl)ethyl)-2-(((1S,7a′S)-2,2-difluorodihydro-1′H,3′H-spiro[cyclopropane-1,2′-pyrrolizin]-7a′(5′H)-yl)methoxy)-10-fluoro-8-(trifluoromethyl)-5,6-dihydro-4H-[1,4]oxazepino[5,6,7-de]quinazolin-9-yl)-7-fluorobenzo[b]thiophene-3-carbonitrile] | ≤ 2000 | ≤ 2000 | ≤ 2000 | ≤ 2000
Cc1c(F)c(N)cc(-c2nc3c4c(nc(O[C@@H](C)[C@@H]5CCCN5C)nc4c2F)N([C@H](C)c2cccnc2N)C[C@H](C)O3)c1C(F)(F)F (single isomer, unassigned) [Compound 816] | ≤ 2000 | ≤ 2000 | ≤ 2000 | ≤ 2000
CON=C1CN2CCC[C@@]2(COc2nc3c4c(c(Cl)c(-c5ccc(F)c6sc(N)c(C#N)c56)c(F)c4n2)OCCN3[C@H](C)c2cccnc2N)C1 (mixture of isomers) [Compound 653, 2-amino-4-(4-((R)-1-(2-aminopyridin-3-yl)ethyl)-8-chloro-10-fluoro-2-(((S)-2-(methoxyimino)tetrahydro-1H-pyrrolizin-7a(5H)-yl)methoxy)-5,6-dihydro-4H-[1,4]oxazepino[5,6,7-de]quinazolin-9-yl)-7-fluorobenzo[b]thiophene-3-carbonitrile] | ≤ 2000 | ≤ 2000 | ≤ 2000 | ≤ 2000
N#Cc1c(N)sc2c(F)ccc(-c3c(C(F)(F)F)c4c5c(nc(OC[C@@]67CCCN6C[C@H](F)C7)nc5c3F)N([C@H](CCC3CC(F)(F)C3)c3cccnc3N)CCO4)c12 (single isomer, unassigned) [Compound 689] | ≤ 2000 | ≤ 2000 | ≤ 2000 | > 2000
N#Cc1c(N)sc2c(F)ccc(-c3c(Cl)c4c5c(nc(OC[C@@]67CCCN6C[C@@]6(CC6(F)F)C7)nc5c3F)N([C@@H](c3cccnc3N)C(F)F)CCO4)c12 [Compound 831, 2-amino-4-(4-((S)-1-(2-aminopyridin-3-yl)-2,2-difluoroethyl)-8-chloro-2-(((1S,7a′S)-2,2-difluorodihydro-1′H,3′H-spiro[cyclopropane-1,2′-pyrrolizin]-7a′(5′H)-yl)methoxy)-10-fluoro-5,6-dihydro-4H-[1,4]oxazepino[5,6,7-de]quinazolin-9-yl)-7-fluorobenzo[b]thiophene-3-carbonitrile] | ≤ 2000 | ≤ 2000 | ≤ 2000 | ≤ 2000
